Legend:
LPA3 = target: T1, LPA3 (Homo sapiens, UniProt Q9UBY5); experiment: Calcium flux assay using FLIPR, LPA3 antagonist activity; assay type: cell-based
T1 sequence (Q9UBY5 1-353): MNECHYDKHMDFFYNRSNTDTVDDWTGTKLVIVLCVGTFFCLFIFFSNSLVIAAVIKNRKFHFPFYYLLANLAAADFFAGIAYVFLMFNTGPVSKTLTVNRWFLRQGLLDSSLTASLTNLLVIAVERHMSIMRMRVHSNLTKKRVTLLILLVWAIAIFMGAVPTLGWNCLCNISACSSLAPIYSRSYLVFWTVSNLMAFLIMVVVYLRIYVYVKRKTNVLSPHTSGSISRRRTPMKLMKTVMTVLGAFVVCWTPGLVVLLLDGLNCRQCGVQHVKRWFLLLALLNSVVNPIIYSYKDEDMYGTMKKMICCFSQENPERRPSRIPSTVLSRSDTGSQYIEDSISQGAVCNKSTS
Protocol: (§1) Calcium Flux Assay Using Fluorometric Imaging Plate Reader (FLIPR)
(§2) After incubation, both the cell and “assay” plates were brought to the FLIPR and 20 μL of the diluted compounds were transferred to the cell plates by the FLIPR. Compound addition was monitored by FLIPR to detect any agonist activity of the compounds. Plates were then incubated for 30 minutes at RT protected from light. After the incubation, plates were returned to the FLIPR and 20 μL of 4.5× concentrated agonist was added to the cell plates. During the assay, fluorescence readings were taken simultaneously from all 384 wells of the cell plate every 1.5 seconds. Five readings were taken to establish a stable baseline, then 20 μL of sample was rapidly (30 μL/sec) and simultaneously added to each well of the cell plate. The fluorescence was continuously monitored before, during and after sample addition for a total elapsed time of 100 seconds. Responses (increase in peak fluorescence) in each well following agonist addition was determined. The initial fluorescence reading from each well, prior to ligand stimulation, was used as zero baseline value for the data from that well. The responses were expressed as % inhibition of the buffer control.

[1] = target: human recombinant LPA1 Lysophospholipid receptor (Homo sapiens, UniProt Q92633); experiment: Calcium flux assay using FLIPR, LPA1 antagonist activity; assay type: cell-based; settings: for IC50: ChemiScreen calcium-optimized stable cell line, inhibition of agonist-induced calcium flux
Protocol: as §1
Cell Culture Conditions: The ChemiScreen Calcium-optimized stable cell line containing the human recombinant LPA1 Lysophospholipid receptor was purchased from Chemicon International, Inc./Millipore. The cells were cultured in DMEM-high glucose supplemented with 10% fetal bovine serum, 2 mM glutamine, 100 U/mL penicillin/100 μg/mL streptomycin, 1× non-essential amino acids, 10 mM HEPES and 0.25 mg/mL Geneticin. Cells were harvested with trypsin-EDTA and counted using ViaCount reagent. The cell suspension volume was adjusted to 2.0×10^5 cells/mL with complete growth media. Aliquots of 50 μL were dispensed into 384 well black/clear tissue culture treated plates (BD) and the microplates were placed in a 37° C. incubator overnight. The following day plates were used in the assay.
Dye Loading and Assay: Loading Buffer (FLIPR Calcium-4, Molecular Devices) was prepared by dissolving the contents of one bottle into 100 mL Hank's Balanced Salt Solution containing 20 mM HEPES and 2.5 mM probenecid. Plates were loaded onto Biotek plate washer and growth media was removed and replaced with 20 μL of Hank's Balanced Salt Solution containing 20 mM HEPES and 2.5 mM probenecid, followed by 25 μL of Loading Buffer. The plates were then incubated for 30 minutes at 37° C.
During the incubation, test compounds were prepared by adding 90 μL of HBSS/20 mM HEPES/0.1% BSA buffer to 2 μL of serially diluted compounds. To prepare serial dilutions, 10 mM stocks of compounds were prepared in 100% DMSO. The compound dilution plate was set up as follows: well #1 received 29 μL of stock compound and 31 μL DMSO; wells 2-10 received 40 μL of DMSO; mixed and transferred 20 μL of solution from well #1 into well #2; continued with 1:3 serial dilutions out 10 steps; transferred 2 μL of diluted compound into duplicate wells of 384 well “assay plate” and then added the 90 μL of buffer.
as §2

Sequence of human recombinant LPA1 Lysophospholipid receptor (Q92633 whole entry): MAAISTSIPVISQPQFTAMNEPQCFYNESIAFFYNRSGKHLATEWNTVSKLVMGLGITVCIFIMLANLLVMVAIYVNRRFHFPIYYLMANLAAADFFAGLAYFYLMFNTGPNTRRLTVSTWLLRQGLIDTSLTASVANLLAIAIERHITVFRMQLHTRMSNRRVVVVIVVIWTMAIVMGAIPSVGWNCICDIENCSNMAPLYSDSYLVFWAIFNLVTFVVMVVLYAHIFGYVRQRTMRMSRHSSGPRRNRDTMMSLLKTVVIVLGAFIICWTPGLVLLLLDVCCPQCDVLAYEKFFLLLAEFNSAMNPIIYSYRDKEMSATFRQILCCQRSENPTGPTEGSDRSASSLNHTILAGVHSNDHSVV

Row | SMILES | inhibition at 30 µM (LPA3) | inhibition at 30 µM [1] | IC50 [1] | inhibition at 10 µM ([1]; @ 10 μM) | inhibition at 5 µM ([1]; @ 5 μM)
1 | COc1ccc(C(=O)/C(=N\C2CCCC2)n2ncc(C#N)c2N)c(OC)c1 [Example 1, (E)-5-Amino-1-(1-(cyclopentylimino)-2-(2,4-dimethoxyphenyl)-2-oxoethyl)-1H-pyrazole-4-carbonitrile] | 22% | 98% | 79.8 nM | – | –
2 | N#Cc1cnn(/C(=N/C2CCCC2)C(=O)c2ccc(Br)cc2)c1N [Example 3, (E)-5-Amino-1-(1-(cyclopentylimino)-2-(4-bromophenyl)-2-oxoethyl)-1H-pyrazole-4-carbonitrile] | < 1% | 96% | 2940 nM | – | –
3 | COc1cc(F)ccc1C(=O)/C(=N\C1CCCC1)n1ncc(C#N)c1N [Example 4, (E)-5-Amino-1-(1-(cyclopentylimino)-2-(4-fluoro-2-methoxyphenyl)-2-oxoethyl)-1H-pyrazole-4-carbonitrile] | 3% | 49% | – | – | –
4 | COc1cc(OC)c(C(=O)/C(=N\C2CCCC2)n2ncc(C#N)c2N)cc1OC [Example 6, (E)-5-Amino-1-(1-(cyclopentylimino)-2-(2,4,5-trimethoxyphenyl)-2-oxoethyl)-1H-pyrazole-4-carbonitrile] | 7.5% | – | 3360 nM | 79.2% | –
5 | COc1cc(OCc2ccccc2)ccc1C(=O)/C(=N\C1CCCC1)n1ncc(C#N)c1N [Example 11, (E)-5-Amino-1-(2-(4-benzyloxy-2-methoxyphenyl)-1-(cyclopentylimino)-2-oxoethyl)-1H-pyrazole-4-carbonitrile] | 23% | 48% | – | – | –

Continued, values first:

Row | inhibition at 30 µM (LPA3) | inhibition at 30 µM [1] | IC50 [1] | inhibition at 10 µM ([1]; @ 10 μM) | inhibition at 5 µM ([1]; @ 5 μM) | SMILES
6 | 13% | 100% | 586 nM | – | – | CCc1ccc(C(=O)/C(=N\C2CCCC2)n2ncc(C#N)c2N)cc1 [Example 2, (E)-5-Amino-1-(1-(cyclopentylimino)-2-(4-ethylphenyl)-2-oxoethyl)-1H-pyrazole-4-carbonitrile]
7 | < 5% | 99.8% | 74 nM | – | – | COc1ccc(C(=O)/C(=N\C2CCCC2)n2ncc(C#N)c2N)c(F)c1 [Example 5, (E)-5-Amino-1-(1-(cyclopentylimino)-2-(2-fluoro-4-methoxyphenyl)-2-oxoethyl)-1H-pyrazole-4-carbonitrile]
8 | 2% | 77.5% | 806 nM | – | – | COc1cc2ccccc2cc1C(=O)/C(=N\C1CCCC1)n1ncc(C#N)c1N [Example 7, (E)-5-Amino-1-(1-(cyclopentylimino)-2-(3-methoxynaphthalen-2-yl)-2-oxoethyl)-1H-pyrazole-4-carbonitrile]
9 | 19.1% | 78.4% | 825 nM | – | – | COc1cc2c(cc1C(=O)/C(=N\C1CCCC1)n1ncc(C#N)c1N)CCC2 [Example 8, (E)-5-Amino-1-(1-(cyclopentylimino)-2-(6-methoxy-2,3-dihydro-1H-inden-5-yl)-2-oxoethyl)-1H-pyrazole-4-carbonitrile]
10 | 29% | 84.9% | 510 nM | – | – | COc1ccc(C(=O)/C(=N\C2CCCCC2)n2ncc(C#N)c2N)c(OC)c1 [Example 9, (E)-5-Amino-1-(1-(cyclohexylimino)-2-(2,4-dimethoxyphenyl)-2-oxoethyl)-1H-pyrazole-4-carbonitrile]
11 | 21% | 88.2% | 111 nM | – | – | COc1ccc(C(=O)/C(=N\C(C)C)n2ncc(C#N)c2N)c(OC)c1 [Example 10, (E)-5-Amino-1-(2-(2,4-dimethoxyphenyl)-1-(iso-propylimino)-2-oxoethyl)-1H-pyrazole-4-carbonitrile]
12 | 14% | – | – | – | 13% | COc1cc(C(=O)/C(=N\C2CCCC2)n2ncc(C#N)c2N)cc(OC)c1OC [Example 12, (E)-5-Amino-1-(1-(cyclopentylimino)-2-(3,4,5-trimethoxyphenyl)-2-oxoethyl)-1H-pyrazole-4-carbonitrile]
